According to paper PMC9781217, “Discovery of Novel and Selective G-Protein Coupled Receptor 120 (GPR120) Agonists for the Treatment of Type 2 Diabetes Mellitus” (Molecules, 2022):
“Also recorded” adds a separate entry of the source.

Columns and labels:
GPR40 = tested on: GPR40; set-up: method as in ref 15-26 = [15]; PMID 22519963; doi:10.1021/jm300215x; 15. Shimpukade B. Hudson B.D. Hovgaard C.K. Milligan G. Ulven T. Discovery of a potent and selective GPR120 agonist J. Med. Chem. 2012 55 4511 4515 10.1021/jm300215x 22519963 || [16]; PMID 24881566; doi:10.1016/j.bmcl.2014.05.012; 16. Sparks S.M. Chen G. Collins J.L. Danger D. Dock S.T. Jayawickreme C. Jenkinson S. Laudeman C. Leesnitzer M.A. Liang X. Identification of diarylsulfonamides as agonists of the free fatty acid recep || [17]; PMID 27570890; doi:10.1021/acs.jmedchem.6b00685; 17. Azevedo C.M. Watterson K.R. Wargent E.T. Hansen S.V. Hudson B.D. Kepczynska M.A. Dunlop J. Shimpukade B. Christiansen E. Milligan G. Non-Acidic Free Fatty Acid Receptor 4 Agonists with Antidiabeti || [18]; PMID 27815121; doi:10.1016/j.bmcl.2016.10.054; 18. Lombardo M. Bender K. London C. Kirkland M. Mane J. Pachanski M. Geissler W. Cummings J. Habulihaz B. Akiyama T.E. Discovery of benzofuran propanoic acid GPR120 agonists: From uHTS hit to mechanis || [19]; PMID 28105282; doi:10.1021/acsmedchemlett.6b00394; 19. Adams G.L. Velazquez F. Jayne C. Shah U. Miao S. Ashley E.R. Madeira M. Akiyama T.E. Di Salvo J. Suzuki T. Discovery of Chromane Propionic Acid Analogues as Selective Agonists of GPR120 with in Vi; conditions: cited from earlier work; for EC50: Figure 1, representative GPR120 agonists
GPR120 = tested on: GPR120; set-up: method as in ref 15-26 = [15]; PMID 22519963; doi:10.1021/jm300215x; 15. Shimpukade B. Hudson B.D. Hovgaard C.K. Milligan G. Ulven T. Discovery of a potent and selective GPR120 agonist J. Med. Chem. 2012 55 4511 4515 10.1021/jm300215x 22519963 || [16]; PMID 24881566; doi:10.1016/j.bmcl.2014.05.012; 16. Sparks S.M. Chen G. Collins J.L. Danger D. Dock S.T. Jayawickreme C. Jenkinson S. Laudeman C. Leesnitzer M.A. Liang X. Identification of diarylsulfonamides as agonists of the free fatty acid recep || [17]; PMID 27570890; doi:10.1021/acs.jmedchem.6b00685; 17. Azevedo C.M. Watterson K.R. Wargent E.T. Hansen S.V. Hudson B.D. Kepczynska M.A. Dunlop J. Shimpukade B. Christiansen E. Milligan G. Non-Acidic Free Fatty Acid Receptor 4 Agonists with Antidiabeti || [18]; PMID 27815121; doi:10.1016/j.bmcl.2016.10.054; 18. Lombardo M. Bender K. London C. Kirkland M. Mane J. Pachanski M. Geissler W. Cummings J. Habulihaz B. Akiyama T.E. Discovery of benzofuran propanoic acid GPR120 agonists: From uHTS hit to mechanis || [19]; PMID 28105282; doi:10.1021/acsmedchemlett.6b00394; 19. Adams G.L. Velazquez F. Jayne C. Shah U. Miao S. Ashley E.R. Madeira M. Akiyama T.E. Di Salvo J. Suzuki T. Discovery of Chromane Propionic Acid Analogues as Selective Agonists of GPR120 with in Vi; conditions: Figure 1, representative GPR120 agonists; cited from earlier work
human GPR120 = tested on: human GPR120; set-up: method as in ref 15-27 = [15]; PMID 22519963; doi:10.1021/jm300215x; 15. Shimpukade B. Hudson B.D. Hovgaard C.K. Milligan G. Ulven T. Discovery of a potent and selective GPR120 agonist J. Med. Chem. 2012 55 4511 4515 10.1021/jm300215x 22519963 || [16]; PMID 24881566; doi:10.1016/j.bmcl.2014.05.012; 16. Sparks S.M. Chen G. Collins J.L. Danger D. Dock S.T. Jayawickreme C. Jenkinson S. Laudeman C. Leesnitzer M.A. Liang X. Identification of diarylsulfonamides as agonists of the free fatty acid recep || [17]; PMID 27570890; doi:10.1021/acs.jmedchem.6b00685; 17. Azevedo C.M. Watterson K.R. Wargent E.T. Hansen S.V. Hudson B.D. Kepczynska M.A. Dunlop J. Shimpukade B. Christiansen E. Milligan G. Non-Acidic Free Fatty Acid Receptor 4 Agonists with Antidiabeti || [18]; PMID 27815121; doi:10.1016/j.bmcl.2016.10.054; 18. Lombardo M. Bender K. London C. Kirkland M. Mane J. Pachanski M. Geissler W. Cummings J. Habulihaz B. Akiyama T.E. Discovery of benzofuran propanoic acid GPR120 agonists: From uHTS hit to mechanis || [19]; PMID 28105282; doi:10.1021/acsmedchemlett.6b00394; 19. Adams G.L. Velazquez F. Jayne C. Shah U. Miao S. Ashley E.R. Madeira M. Akiyama T.E. Di Salvo J. Suzuki T. Discovery of Chromane Propionic Acid Analogues as Selective Agonists of GPR120 with in Vi; conditions: cited from earlier work
hGPR40 = tested on: hGPR40; set-up: method as in ref 15-26 = [15]; PMID 22519963; doi:10.1021/jm300215x; 15. Shimpukade B. Hudson B.D. Hovgaard C.K. Milligan G. Ulven T. Discovery of a potent and selective GPR120 agonist J. Med. Chem. 2012 55 4511 4515 10.1021/jm300215x 22519963 || [16]; PMID 24881566; doi:10.1016/j.bmcl.2014.05.012; 16. Sparks S.M. Chen G. Collins J.L. Danger D. Dock S.T. Jayawickreme C. Jenkinson S. Laudeman C. Leesnitzer M.A. Liang X. Identification of diarylsulfonamides as agonists of the free fatty acid recep || [17]; PMID 27570890; doi:10.1021/acs.jmedchem.6b00685; 17. Azevedo C.M. Watterson K.R. Wargent E.T. Hansen S.V. Hudson B.D. Kepczynska M.A. Dunlop J. Shimpukade B. Christiansen E. Milligan G. Non-Acidic Free Fatty Acid Receptor 4 Agonists with Antidiabeti || [18]; PMID 27815121; doi:10.1016/j.bmcl.2016.10.054; 18. Lombardo M. Bender K. London C. Kirkland M. Mane J. Pachanski M. Geissler W. Cummings J. Habulihaz B. Akiyama T.E. Discovery of benzofuran propanoic acid GPR120 agonists: From uHTS hit to mechanis || [19]; PMID 28105282; doi:10.1021/acsmedchemlett.6b00394; 19. Adams G.L. Velazquez F. Jayne C. Shah U. Miao S. Ashley E.R. Madeira M. Akiyama T.E. Di Salvo J. Suzuki T. Discovery of Chromane Propionic Acid Analogues as Selective Agonists of GPR120 with in Vi; conditions: Figure 1; cited from earlier work
human GPR40 (hGPR40) = human GPR40 (hGPR40) (Homo sapiens, UniProt O14842); assay: Calcium flux assay in hGPR40-expressing CHO cells
Chain of human GPR40 (hGPR40) (O14842 whole entry): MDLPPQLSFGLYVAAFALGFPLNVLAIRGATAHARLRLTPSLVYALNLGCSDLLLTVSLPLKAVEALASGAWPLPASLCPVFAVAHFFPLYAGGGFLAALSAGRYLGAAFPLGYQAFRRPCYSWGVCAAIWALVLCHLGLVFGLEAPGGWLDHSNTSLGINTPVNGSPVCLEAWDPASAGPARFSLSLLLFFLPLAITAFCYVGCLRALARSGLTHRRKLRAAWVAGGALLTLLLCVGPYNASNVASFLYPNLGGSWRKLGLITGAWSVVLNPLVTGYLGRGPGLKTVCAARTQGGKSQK
Procedure: (§1) A calcium flux assay was performed to assess the agonist activity of the test compounds against the hGPR120 (mGPR120) and hGPR40 (mGPR40) receptors. […] The medium in the wells was gently discarded, and the wells were washed with Hank’s balanced salt solution (HBSS; 100 μL per well). […] The cells were then washed thrice in HBSS and allowed to equilibrate for 10 min before conducting the assay. Test compounds dissolved in dimethyl sulfoxide were diluted in HBSS at various concentrations and added to Fluo-4 AM-containing cells, and intracellular Ca^2+ concentrations were measured using FlexStation3 Molecular Devices. The EC50 value of each compound was calculated using GraphPad Prism software (version 5.0; GraphPad Software, San Diego, CA, USA).

[1] = Pharmacokinetic analysis in C57BL/6 mice; assay type: in vivo; conditions: C57BL/6 mice
Procedure: The pharmacokinetic profiles of 10k and 14d were obtained from C57BL/6 mice. […] The pharmacokinetic profiles traces were shown in the Supplementary Materials (Figure S1, see Supporting Materials).
Plasma was collected and precipitated using two volumes of acetonitrile containing an internal standard. This was followed by centrifugation at 15.680 g for 10 min after vortexing for 5 min. The supernatant was diluted with acetonitrile and 10 µL of the supernatant was analyzed by Waters LC-PDA-MS/MS to determine plasma drug levels. Pharmacokinetic parameters were determined using mean data from four mice at each time point. Statistical analysis of the data was performed using the DAS 2.1.1 statistical software program (BioVoice, Shanghai, China).

human GPR120 (hGPR120) = biological target: T1, human GPR120 (hGPR120) (Homo sapiens, UniProt Q5NUL3); assay: Calcium flux assay in hGPR120-transfected CHO cells
T1 sequence (Q5NUL3 1-361): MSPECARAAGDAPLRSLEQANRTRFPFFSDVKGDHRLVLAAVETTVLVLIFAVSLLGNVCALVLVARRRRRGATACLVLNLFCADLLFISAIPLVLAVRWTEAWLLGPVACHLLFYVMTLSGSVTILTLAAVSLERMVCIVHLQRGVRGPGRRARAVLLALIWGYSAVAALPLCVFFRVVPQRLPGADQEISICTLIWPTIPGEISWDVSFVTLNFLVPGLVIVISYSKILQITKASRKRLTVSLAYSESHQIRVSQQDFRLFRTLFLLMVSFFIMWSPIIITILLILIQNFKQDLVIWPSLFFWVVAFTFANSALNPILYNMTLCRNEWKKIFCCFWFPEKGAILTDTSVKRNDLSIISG
Procedure: as §1

O=C(O)CC1CCC2(CC1)CCN(c1cc(OC(F)(F)F)ccc1Cl)CC2 [Compound 2]
EC50 (GPR40): > 10000 nM

O=C(O)CCc1cc(F)c(OCc2c(-c3ccc(Cl)cc3F)nsc2C(F)(F)F)c(F)c1 [Compound 7]
EC50 (GPR40): > 5000 nM
EC50 (GPR120): 42 nM

Cc1ccc(-n2nc(C)c3cnc(-c4ccc([C@H]5C[C@@H]5C(=O)O)cc4)cc32)nc1 [Compound 3]
EC50 (GPR40): > 100000 nM
EC50 (GPR120): 740 nM

Cc1ccc(-c2ccc(F)cc2COc2ccc(CC3SC(=O)NC3=O)c(Cl)c2)cc1 (stereo not shown) [Compound 8]
EC50 (GPR40): 79000 nM
EC50 (GPR120): 76 nM

CO[C@H]1C[C@H](Oc2cc(F)c(F)c(-c3c(F)cc(OCCCC(=O)O)cc3F)c2)C1 [Compound 6]
EC50 (human GPR120): 93 nM
EC50 (hGPR40): > 100000 nM

O=S1(=O)c2ccccc2CN1c1cc(F)cc(Oc2ccccn2)c1 [Compound 5]
GPR40 activity (GPR40; at 100 μM, Figure 1): Inactive
EC50 (GPR120): 123 nM

CO[C@H]1C[C@H](Oc2cc(F)c(F)c(-c3ccc4c(c3)CC[C@H](CCC(=O)O)O4)c2)C1 [Compound 4]
EC50 (GPR40): > 10000 nM
EC50 (GPR120): 35 nM

Cc1ccc(-c2ccc(F)cc2OCc2ccc(OCCCC(=O)O)c(F)c2)cc1 [Compound 10k, 4-(2-fluoro-4-(((4-fluoro-4′-methyl-[1,1′-biphenyl]-2-yl)oxy)methyl)phenoxy)butanoic acid]
melting point: 130 to 132 °C
EC50 (human GPR40 (hGPR40)): 74300 nM
metabolic stability in vivo ([1]; pharmacokinetics, in words): higher metabolic stability than TUG-891; also recorded: excellent metabolic stability
Tmax ([1]; male, mouse, plasma, po, 10 mg/kg gavage): 30 min
Cmax ([1]; male, mouse, plasma, po, 10 mg/kg gavage, 0.5% MC, mean ± SD of four mice): 2370 ± 335 ng/mL
AUC ([1]; male, mouse, plasma, po, 10 mg/kg gavage, mean ± SD of four mice): 4250 ± 577 ng·h/mL
half-life ([1]; male, mouse, plasma, po, 10 mg/kg gavage, mean ± SD of four mice, read-out: t1/2 (converted)): 66 ± 18 min
EC50 (human GPR120 (hGPR120)): 57.6 nM
Selectivity (human GPR120 (hGPR120); hGPR120 over hGPR40): 1289.9
